Experimental data as given in patent US20160220602A1, “USE OF CHINESE MEDICINE PREPARATION IN PREPARING DRUG FOR PREVENTING AND/OR TREATING CROHN'S DISEASE” (TASLY PHARMACEUTICAL GROUP CO., LTD., priority 2013, published 2016).

Legend:
Assay type in all cases: in vivo, SD rats
IL-4 = assay: Serum IL-4 by ELISA, TNBS model rats; conditions: 100 mg/kg once per day, 21 days
Method: (§1) Grouping: experiment was carried out by using two ways of intracolonic and intragastric administrations. […] There were 10 rats each group. Method for establishing rat model: referring to Morris method, TNBS was used to induce the SD rat Crohn's disease model (abbreviated as “TNBS model”). 24 hours before modeling, the SD rats were fasted but water was given. […] The rats of blank control group were normally fed with free access to water and the same volume of normal saline was given in the same administration routes by referring to the dosage regime of aforementioned treatment groups. The rats of model group were administrated with the same volume of normal saline in the same administration routes. […] (2) Serum indices: after final administration, the testing rats were fasted but given water. 24 hours later, blood was gained from abdominal aorta. Serum IFN-γ, IL-1, IL-4, IL-10 and Gln in intestinal mucosa were determined by enzyme-linked immunosorbent assay (ELISA) in rats.

Gln in intestinal mucosa = Gln in intestinal mucosa by ELISA, TNBS model rats; conditions: 100 mg/kg once per day, 21 days
Method: as §1

[1] = system: TNBS-induced SD rat Crohn's disease model; assay: Colon gross damage and histopathological score, TNBS model rats; conditions: 100 mg/kg
Method: Grouping: experiment was carried out by using two ways of intracolonic and intragastric administrations. […] There were 10 rats each group. Method for establishing rat model: referring to Morris method, TNBS was used to induce the SD rat Crohn's disease model (abbreviated as “TNBS model”). 24 hours before modeling, the SD rats were fasted but water was given. […] The rats of blank control group were normally fed with free access to water and the same volume of normal saline was given in the same administration routes by referring to the dosage regime of aforementioned treatment groups. The rats of model group were administrated with the same volume of normal saline in the same administration routes. […] (3) Pathological indices: the colon of rats was taken out. The gross colon tissue damage was scored, subsequently examined and scored histopathologically by conventional HE staining. […] [table]

[2] = system: OXZ-induced SD rat Crohn's disease model; assay: DAI score in oxazolone-caused Crohn's disease rat model; parameters: key: DAI = (weight loss % + stool character + hematochezia scores)/3; conditions: 100 mg/kg
Method: Grouping: the experiment was carried out by using two ways of intracolonic and intragastric administration. […] There were 10 rats each group. Method for establishing rat model: referring to the Heller method, OXZ was used to induce the SD rat Crohn's disease model (abbreviated as “OXZ model”). Neck and back skin of rats were shaved (2 cm×2 cm). Ethanol was used to prepare 5% (w/v) OXZ solution, and 0.3 ml resultant OXZ solution was dripped on the skin of rats. […] The sensitized rats were adaptively raised for 5 days, […] anesthetized by intraperitoneal injection of pentobarbital sodium. […] After completion, the rats were inverted by lifting tails for 60s to make the solution totally absorbed. […] If the rats manifested dark hair color, body weight loss, poor appetite, lassitude, watery stool or diarrhea, the model establishment was success. Administration method: after successful model establishment by OXZ, the drug was given to rats. The TCM preparation k saline solutions at corresponding dose were administered to the groups of preparation k of all doses and the […] saline solution, a positive drug, administrated to the positive control group. The rats of blank control group were normally fed, given with water and the same volume of normal saline was given in the same administration routes by referring to the dosage regime of aforesaid treatment groups. The rats of model group were administrated with the same volume of normal saline in the same administration routes. The dose of each group was as follows: […] group at 100 mg/kg rat weight, the TCM preparation k high-dose group at 2.023 g raw medicine/kg rat weight, the middle-dose group at 1.012 g raw medicine/kg rat weight and the low-dose group at 0.506 g raw medicine/kg rat weight. […] (1) General Indices: weight change and stool (e.g. stool occult blood, bloody stool and diarrhea) were observed every day to calculate DAI score. DAI score=(weight loss percentage+defecate character fraction+hematochezia fraction)/3 [table]

[3] = system: OXZ-induced SD rat Crohn's disease model; assay: Colon gross damage and histopathological score, OXZ model rats; conditions: 100 mg/kg
Method: Grouping: the experiment was carried out by using two ways of intracolonic and intragastric administration. […] There were 10 rats each group. Method for establishing rat model: referring to the Heller method, OXZ was used to induce the SD rat Crohn's disease model (abbreviated as “OXZ model”). Neck and back skin of rats were shaved (2 cm×2 cm). Ethanol was used to prepare 5% (w/v) OXZ solution, and 0.3 ml resultant OXZ solution was dripped on the skin of rats. […] The sensitized rats were adaptively raised for 5 days, […] anesthetized by intraperitoneal injection of pentobarbital sodium. […] After completion, the rats were inverted by lifting tails for 60s to make the solution totally absorbed. […] If the rats manifested dark hair color, body weight loss, poor appetite, lassitude, watery stool or diarrhea, the model establishment was success. Administration method: after successful model establishment by OXZ, the drug was given to rats. The TCM preparation k saline solutions at corresponding dose were administered to the groups of preparation k of all doses and the […] saline solution, a positive drug, administrated to the positive control group. The rats of blank control group were normally fed, given with water and the same volume of normal saline was given in the same administration routes by referring to the dosage regime of aforesaid treatment groups. The rats of model group were administrated with the same volume of normal saline in the same administration routes. The dose of each group was as follows: […] group at 100 mg/kg rat weight, the TCM preparation k high-dose group at 2.023 g raw medicine/kg rat weight, the middle-dose group at 1.012 g raw medicine/kg rat weight and the low-dose group at 0.506 g raw medicine/kg rat weight.

[4] = Table 18: OXZ-model rats, route not printed in title

## Nc1ccc(O)c(C(=O)O)c1 [mesalamine, Mesalamine]
IL-4; intracolonic
  IL-4 serum content (Mean ± SD): 96.80 ± 27.51 pg/mL
IL-4; intragastric
  IL-4 serum content (Mean ± SD): 75.80 ± 17.47 pg/mL
Gln in intestinal mucosa; intracolonic
  Gln in intestinal mucosa (Mean ± SD): 146.36 ± 28.11 µmol/L
Gln in intestinal mucosa; intragastric
  Gln in intestinal mucosa (Mean ± SD): 158.74 ± 41.35 µmol/L
[1]; intracolonic
  Gross damage score (Mean ± SD): 0.500 ± 0.707
  Histopathological score (Mean ± SD): 1.00 ± 1.10
[1]; intragastric
  Gross damage score (Mean ± SD): 0.556 ± 0.527
  Histopathological score (Mean ± SD): 0.83 ± 0.41
[2]; Table 14: OXZ model rats, intracolonic, 1st day
  DAI score (Mean ± SD): 0.267 ± 0.263
[2]; Table 14: OXZ model rats, intracolonic, 2nd day
  DAI score (Mean ± SD): 0.400 ± 0.378
[2]; Table 14: OXZ model rats, intracolonic, 3rd day
  DAI score (Mean ± SD): 0.300 ± 0.331
[2]; Table 14: OXZ model rats, intracolonic, 4th day
  DAI score (Mean ± SD): 0.333 ± 0.385
[2]; Table 14: OXZ model rats, intracolonic, 5th day
  DAI score (Mean ± SD): 0.800 ± 0.422
[2]; Table 14: OXZ model rats, intracolonic, 7th day
  DAI score (Mean ± SD): 1.700 ± 0.637
[2]; Table 14: OXZ model rats, intracolonic, 8th day
  DAI score (Mean ± SD): 1.500 ± 0.593
[2]; Table 14: OXZ model rats, intracolonic, 9th day
  DAI score (Mean ± SD): 0.733 ± 0.439
[2]; Table 15, as titled: intracolonic, TNBS model rats, 1st day
  DAI score (Mean ± SD): 0.600 ± 0.141
[2]; Table 15, as titled: intracolonic, TNBS model rats, 4th day
  DAI score (Mean ± SD): 0.267 ± 0.211
[2]; Table 15, as titled: intracolonic, TNBS model rats, 5th day
  DAI score (Mean ± SD): 1.000 ± 0.222
[2]; Table 15, as titled: intracolonic, TNBS model rats, 8th day
  DAI score (Mean ± SD): 1.967 ± 0.576
[2]; Table 15, as titled: intracolonic, TNBS model rats, 9th day
  DAI score (Mean ± SD): 1.633 ± 0.429
[2]; Table 15, as titled: intracolonic, TNBS model rats, 10th day
  DAI score (Mean ± SD): 1.267 ± 0.625
[2]; Table 15, as titled: intracolonic, TNBS model rats, 11th day
  DAI score (Mean ± SD): 1.067 ± 0.798
[3]; OXZ model rats, intragastric
  Gross damage score (Mean ± SD): 1.700 ± 1.494
[3]; [4]
  Gross damage score (Mean ± SD): 1.800 ± 1.229
  Histopathological score (Mean ± SD): 3.17 ± 1.33
